Laboratory results published in patent US20230085307A1, “PYRIDAZINONE COMPOUND AND HERBICIDE” (NISSAN CHEMICAL CORPORATION, priority 2019, published 2023).

Experiments:
Japanese bulrush = test: Test Example 1: herbicidal activity, application before weed generation under submerged conditions (Table 16, symbol B); assay type: in vivo, Japanese bulrush (Schoenoplectus juncoides); details: 320 g/ha applied herbicide
Method in brief: (§1)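 Emulsion formulation, water-diluted to set dose, was put onto the flooded surface (4 cm depth, alluvial soil) the same day weeds were sown and 2.5-leaf rice transplanted. After 3 weeks at 25-30 °C under glass, each species was rated 0 (≤5% kill) to 5 (≥90% kill).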

late watergrass = test: Test Example 1: herbicidal activity, application before weed generation under submerged conditions (Table 16, symbol A); assay type: in vivo, late watergrass (Echinochloa oryzicola); details: 320 g/ha applied herbicide
Method in brief: as §1

barnyard grass = test: Test Example 3: herbicidal effect by foliage application, Wagner pot (Table 18, symbol H); assay type: in vivo, barnyard grass (Echinochloa crus-galli); details: 320 g/ha
Method in brief: (§2)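 Plants were sown in alluvial soil held under 0.1–0.5 cm standing water and grown 14 days in a greenhouse at 25–30 °C. An emulsifiable formulation, water-diluted to the set dose, was then sprayed onto the foliage, and effects were scored three weeks later using previously defined criteria.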

lambsquarters [1] = test: Test Example 5: herbicidal effect by foliage application, plastic box (Table 20, symbol O); assay type: in vivo, lambsquarters (Chenopodium album); details: foliage application, 320 g/ha; for herbicidal effect on O: lambsquarters: evaluated three weeks after application
Method in brief: (§3)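 Plants were sown into sterilized diluvial soil under about 1.5 cm cover and kept in a greenhouse at 25° C. to 30° C. Fourteen days on, foliage received an even spray of the diluted emulsion. Herbicidal or crop effect was judged three weeks afterwards.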

Italian ryegrass [2] = test: Test Example 4: herbicidal effect by soil treatment (Table 19, symbol K); assay type: in vivo, Italian ryegrass (Lolium multiflorum)
Method in brief: (§4)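 In this soil treatment, the formulated compound reached the seeds only through the soil: seeds were buried about 1.5 cm deep in sterilized diluvial soil, then the diluted emulsion was sprayed over the surface. After three weeks at 25° C. to 30° C. in a greenhouse, effects were graded on criteria from an earlier test.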

lambsquarters [3] = test: Test Example 4: herbicidal effect by soil treatment (Table 19, symbol O); assay type: in vivo, lambsquarters (Chenopodium album)
Method in brief: as §4

oval-leafed pondweed = test: Test Example 1: herbicidal activity, application before weed generation under submerged conditions (Table 16, symbol C); assay type: in vivo, oval-leafed pondweed (Monochoria vaginalis); details: 320 g/ha applied herbicide
Method in brief: as §1

Chinese sprangletop = test: Test Example 3: herbicidal effect by foliage application, Wagner pot (Table 18, symbol D); assay type: in vivo, chinese sprangletop (Leptochloa chinensis); details: 320 g/ha
Method in brief: as §2

blackgrass = test: Test Example 5: herbicidal effect by foliage application, plastic box (Table 20, symbol J); assay type: in vivo, blackgrass (Alopecurus myosuroides); details: foliage application, 320 g/ha; for herbicidal effect on J: blackgrass: evaluated three weeks after application
Method in brief: as §3

windgrass = test: Test Example 4: herbicidal effect by soil treatment (Table 19, symbol L); assay type: in vivo, windgrass (Apera spica-venti)
Method in brief: as §4

green foxtail = test: Test Example 5: herbicidal effect by foliage application, plastic box (Table 20, symbol G); assay type: in vivo, green foxtail (Setaria viridis); details: foliage application, 320 g/ha; for herbicidal effect on G: green foxtail: evaluated three weeks after application
Method in brief: as §3

Italian ryegrass [4] = test: Test Example 5: herbicidal effect by foliage application, plastic box (Table 20, symbol K); assay type: in vivo, Italian ryegrass (Lolium multiflorum); details: foliage application, 320 g/ha; for herbicidal effect on K: Italian ryegrass: evaluated three weeks after application
Method in brief: as §3

wild oat = test: Test Example 5: herbicidal effect by foliage application, plastic box (Table 20, symbol I); assay type: in vivo, wild oat (Avena fatua); details: foliage application, 320 g/ha; for herbicidal effect on I: wild oat: evaluated three weeks after application
Method in brief: as §3

rice flat sedge = test: Test Example 3: herbicidal effect by foliage application, Wagner pot (Table 18, symbol E); assay type: in vivo, rice flat sedge (Cyperus iria); details: 320 g/ha
Method in brief: as §2

velvetleaf = test: Test Example 5: herbicidal effect by foliage application, plastic box (Table 20, symbol M); assay type: in vivo, velvetleaf (Abutilon theophrasti); details: foliage application, 320 g/ha; for herbicidal effect on M: velvetleaf: evaluated three weeks after application
Method in brief: as §3

chickweed = test: Test Example 4: herbicidal effect by soil treatment (Table 19, symbol P); assay type: in vivo, common chickweed (Stellaria media)
Method in brief: as §4

southern crabgrass = test: Test Example 5: herbicidal effect by foliage application, plastic box (Table 20, symbol F); assay type: in vivo, southern crabgrass (Digitaria ciliaris); details: foliage application, 320 g/ha; for herbicidal effect on F: southern crabgrass: evaluated three weeks after application
Method in brief: as §3

[5] = amount of applied herbicide 320 g/ha

SMILES: COc1ccccc1-c1sc2ccc(Cl)cc2c1-c1c(O)c(C)nn(C)c1=O [2-101]
- Herbicidal effect on B: Japanese bulrush (grade 0-5) (Japanese bulrush): 3 (Herbicidal rate of 40% or more and less than 70%)
- Herbicidal effect on A: late watergrass (grade 0-5) (late watergrass): 0 (Herbicidal rate of 5% or less (almost no effect))
- herbicidal effect on H (barnyard grass), rating 0-5 (barnyard grass): 4 (Herbicidal rate of 70% or more and less than 90%)
- herbicidal effect on O: lambsquarters (lambsquarters [1]): 5 (Herbicidal rate of 90% or more (almost completely withered))
- K: Italian ryegrass, herbicidal effect rating (Italian ryegrass [2]; [5]): 3 (Herbicidal rate of 40% or more and less than 70%)
- O: lambsquarters, herbicidal effect rating (lambsquarters [3]; [5]): 4 (Herbicidal rate of 70% or more and less than 90%)
- Herbicidal effect on C: oval-leafed pondweed (grade 0-5) (oval-leafed pondweed): 3 (Herbicidal rate of 40% or more and less than 70%)
- herbicidal effect on D (Chinese sprangletop), rating 0-5 (Chinese sprangletop): 0 (Herbicidal rate of 5% or less (almost no effect))
- herbicidal effect on J: blackgrass (blackgrass): 5 (Herbicidal rate of 90% or more (almost completely withered))
- L: windgrass, herbicidal effect rating (windgrass; [5]): 0 (Herbicidal rate of 5% or less (almost no effect))
- herbicidal effect on G: green foxtail (green foxtail): 3 (Herbicidal rate of 40% or more and less than 70%)
- herbicidal effect on K: Italian ryegrass (Italian ryegrass [4]): 4 (Herbicidal rate of 70% or more and less than 90%)
- herbicidal effect on I: wild oat (wild oat): 3 (Herbicidal rate of 40% or more and less than 70%)
- herbicidal effect on E (rice flat sedge), rating 0-5 (rice flat sedge): 5 (Herbicidal rate of 90% or more (almost completely withered))
- herbicidal effect on M: velvetleaf (velvetleaf): 5 (Herbicidal rate of 90% or more (almost completely withered))
- P: chickweed, herbicidal effect rating (chickweed; [5]): 5 (Herbicidal rate of 90% or more (almost completely withered))
- herbicidal effect on F: southern crabgrass (southern crabgrass): 2 (Herbicidal rate of 20% or more and less than 40%)

SMILES: CCCC(=O)Oc1c(C)nn(C)c(=O)c1-c1c(-c2ccc3c(c2)OCO3)sc2ccc(F)cc12 [2-091]
- Herbicidal effect on B: Japanese bulrush (grade 0-5) (Japanese bulrush): 4 (Herbicidal rate of 70% or more and less than 90%)
- Herbicidal effect on A: late watergrass (grade 0-5) (late watergrass): 3 (Herbicidal rate of 40% or more and less than 70%)
- herbicidal effect on H (barnyard grass), rating 0-5 (barnyard grass): 3 (Herbicidal rate of 40% or more and less than 70%)
- herbicidal effect on O: lambsquarters (lambsquarters [1]): 5 (Herbicidal rate of 90% or more (almost completely withered))
- herbicidal effect rating, K: Italian ryegrass (Italian ryegrass [2]; 320 g/ha): 3 (Herbicidal rate of 40% or more and less than 70%)
- herbicidal effect rating, O: lambsquarters (lambsquarters [3]; 320 g/ha): 5 (Herbicidal rate of 90% or more (almost completely withered))
- Herbicidal effect on C: oval-leafed pondweed (grade 0-5) (oval-leafed pondweed): 5 (Herbicidal rate of 90% or more (almost completely withered))
- herbicidal effect on D (Chinese sprangletop), rating 0-5 (Chinese sprangletop): 3 (Herbicidal rate of 40% or more and less than 70%)
- herbicidal effect on J: blackgrass (blackgrass): 3 (Herbicidal rate of 40% or more and less than 70%)
- herbicidal effect rating, L: windgrass (windgrass; 320 g/ha): 0 (Herbicidal rate of 5% or less (almost no effect))
- herbicidal effect on G: green foxtail (green foxtail): 1 (Herbicidal rate of 5% or more and less than 20%)
- herbicidal effect on K: Italian ryegrass (Italian ryegrass [4]): 4 (Herbicidal rate of 70% or more and less than 90%)
- herbicidal effect on I: wild oat (wild oat): 0 (Herbicidal rate of 5% or less (almost no effect))
- herbicidal effect on E (rice flat sedge), rating 0-5 (rice flat sedge): 5 (Herbicidal rate of 90% or more (almost completely withered))
- herbicidal effect on M: velvetleaf (velvetleaf): 5 (Herbicidal rate of 90% or more (almost completely withered))
- herbicidal effect rating, P: chickweed (chickweed; 320 g/ha): 1 (Herbicidal rate of 5% or more and less than 20%)
- herbicidal effect on F: southern crabgrass (southern crabgrass): 2 (Herbicidal rate of 20% or more and less than 40%)

SMILES: COCCOCOc1c(C)nn(C)c(=O)c1-c1c(-c2ccc(OCCSC)cc2)sc2ccccc12 [1-221]
- Herbicidal effect on B: Japanese bulrush (grade 0-5) (Japanese bulrush): 3 (Herbicidal rate of 40% or more and less than 70%)
- Herbicidal effect on A: late watergrass (grade 0-5) (late watergrass): 5 (Herbicidal rate of 90% or more (almost completely withered))
- herbicidal effect on H (barnyard grass), rating 0-5 (barnyard grass): 5 (Herbicidal rate of 90% or more (almost completely withered))
- effect on lambsquarters (O) (lambsquarters [1]; 3 weeks after application): 5 (Herbicidal rate of 90% or more (almost completely withered))
- K: Italian ryegrass, herbicidal effect rating (Italian ryegrass [2]; AAH 320 g/ha): 5 (Herbicidal rate of 90% or more (almost completely withered))
- O: lambsquarters, herbicidal effect rating (lambsquarters [3]; AAH 320 g/ha): 4 (Herbicidal rate of 70% or more and less than 90%)
- Herbicidal effect on C: oval-leafed pondweed (grade 0-5) (oval-leafed pondweed): 3 (Herbicidal rate of 40% or more and less than 70%)
- herbicidal effect on D (Chinese sprangletop), rating 0-5 (Chinese sprangletop): 5 (Herbicidal rate of 90% or more (almost completely withered))
- effect on blackgrass (J) (blackgrass; 3 weeks after application): 5 (Herbicidal rate of 90% or more (almost completely withered))
- L: windgrass, herbicidal effect rating (windgrass; AAH 320 g/ha): 0 (Herbicidal rate of 5% or less (almost no effect))
- effect on green foxtail (G) (green foxtail; 3 weeks after application): 5 (Herbicidal rate of 90% or more (almost completely withered))
- effect on Italian ryegrass (K) (Italian ryegrass [4]; 3 weeks after application): 5 (Herbicidal rate of 90% or more (almost completely withered))
- effect on wild oat (I) (wild oat; 3 weeks after application): 5 (Herbicidal rate of 90% or more (almost completely withered))
- herbicidal effect on E (rice flat sedge), rating 0-5 (rice flat sedge): 5 (Herbicidal rate of 90% or more (almost completely withered))
- effect on velvetleaf (M) (velvetleaf; 3 weeks after application): 5 (Herbicidal rate of 90% or more (almost completely withered))
- P: chickweed, herbicidal effect rating (chickweed; AAH 320 g/ha): 4 (Herbicidal rate of 70% or more and less than 90%)
- effect on southern crabgrass (F) (southern crabgrass; 3 weeks after application): 5 (Herbicidal rate of 90% or more (almost completely withered))

SMILES: CCCC(=O)Oc1c(C)nn(C)c(=O)c1-c1c(-c2ccc(SC)cc2)sc2ccccc12 [1-037]
- Herbicidal effect on B: Japanese bulrush (grade 0-5) (Japanese bulrush): 4 (Herbicidal rate of 70% or more and less than 90%)
- Herbicidal effect on A: late watergrass (grade 0-5) (late watergrass): 4 (Herbicidal rate of 70% or more and less than 90%)
- herbicidal effect on H (barnyard grass), rating 0-5 (barnyard grass): 5 (Herbicidal rate of 90% or more (almost completely withered))
- herbicidal effect grade, O: lambsquarters (lambsquarters [1]; three weeks after application): 5 (Herbicidal rate of 90% or more (almost completely withered))
- herbicidal effect rating, K: Italian ryegrass (Italian ryegrass [2]; [5]): 1 (Herbicidal rate of 5% or more and less than 20%)
- herbicidal effect rating, O: lambsquarters (lambsquarters [3]; [5]): 3 (Herbicidal rate of 40% or more and less than 70%)
- Herbicidal effect on C: oval-leafed pondweed (grade 0-5) (oval-leafed pondweed): 3 (Herbicidal rate of 40% or more and less than 70%)
- herbicidal effect on D (Chinese sprangletop), rating 0-5 (Chinese sprangletop): 3 (Herbicidal rate of 40% or more and less than 70%)
- herbicidal effect grade, J: blackgrass (blackgrass; three weeks after application): 4 (Herbicidal rate of 70% or more and less than 90%)
- herbicidal effect rating, L: windgrass (windgrass; [5]): 0 (Herbicidal rate of 5% or less (almost no effect))
- herbicidal effect grade, G: green foxtail (green foxtail; three weeks after application): 5 (Herbicidal rate of 90% or more (almost completely withered))
- herbicidal effect grade, K: Italian ryegrass (Italian ryegrass [4]; three weeks after application): 4 (Herbicidal rate of 70% or more and less than 90%)
- herbicidal effect grade, I: wild oat (wild oat; three weeks after application): 1 (Herbicidal rate of 5% or more and less than 20%)
- herbicidal effect on E (rice flat sedge), rating 0-5 (rice flat sedge): 5 (Herbicidal rate of 90% or more (almost completely withered))
- herbicidal effect grade, M: velvetleaf (velvetleaf; three weeks after application): 5 (Herbicidal rate of 90% or more (almost completely withered))
- herbicidal effect rating, P: chickweed (chickweed; [5]): 4 (Herbicidal rate of 70% or more and less than 90%)
- herbicidal effect grade, F: southern crabgrass (southern crabgrass; three weeks after application): 3 (Herbicidal rate of 40% or more and less than 70%)
